# Assay results as given in US10800791B2, “Triazole ACC inhibitors and uses thereof” (Gilead Apollo, LLC, priority 2015, dated 2020).
# Where two headings read alike, the source gives them in different places.
# Legend:
# human (hACC2) = human (hACC2) (Homo sapiens, UniProt O00763); assay: In vitro ACC inhibition assay (ADP-Glo), hACC2; format: biochemical; settings: 5 nM ACC2, 20 μM ATP, 20 μM acetyl-CoA
# Experimental: The detailed procedure is as follows. […] 10 μL ADP glo reagent was added. […] 20 μL kinase detection reagent was added.
# C. albicans = assay: Antifungal Activity Assay (broth microtiter MIC), C. albicans; format: cell-based, Candida albicans; settings: Candida albicans, ATCC90028, 48 h
# Summary of the method: (§1)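 MICs were scored by eye at 48 h relative to the growth control. Plates followed CLSI M27-A3, with Candida suspensions in RPMI 1640+MOPS giving a final 2.5×10^3 CFU/mL; the colonies came from Sabouraud agar grown overnight at 35 °C.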
# C. krusei = assay: Antifungal Activity Assay (broth microtiter MIC), C. krusei; format: cell-based, Candida krusei; settings: Pichia kudriavzevii, ATCC6258, 48 h
# Summary of the method: as §1
# C. parapsilosis = assay: Antifungal Activity Assay (broth microtiter MIC), C. parapsilosis; format: cell-based, Candida parapsilosis; settings: Lodderomyces parapsilosis, ATCC22019, 48 h
# Summary of the method: as §1
# [1] = system: Collectotrichum graminicola (Cg); assay: Growth inhibition assay of fungal pathogens, Cg; format: cell-based; settings: 48 h
# Summary of the method: (§2)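 Inhibition percentages reflect 48 h OD600 and visual scores relative to a 2% DMSO control. Test concentrations were 50, 10, 2 ppm or 2, 0.4, 0.08 ppm final, applied to spores in 17% V8 medium.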
# Diplodia maydis (Dm) = assay: Growth inhibition assay of fungal pathogens, Dm; format: cell-based; settings: Stenocarpella maydis, 48 h
# Summary of the method: as §2
# [2] = system: Fusarium moniliforme (Fm); assay: Growth inhibition assay of fungal pathogens, Fm; format: cell-based; settings: for IC90: Fusarium verticillioides, 48 h, read-out: Concentration at 90% Inhibition Fm
# Summary of the method: as §2
# [3] = system: Fusarium virguliforme (Fv); assay: Growth inhibition assay of fungal pathogens, Fv; format: cell-based; settings: 48 h
# Summary of the method: as §2
# [4] = system: Phytophthora capsici (Pc); assay: Growth inhibition assay of fungal pathogens, Pc; format: cell-based; settings: 48 h
# Summary of the method: as §2
# Rhizoctonia solani (Rs) = assay: Growth inhibition assay of fungal pathogens, Rs; format: cell-based; settings: 48 h
# Septoria tritici (St) = assay: Growth inhibition assay of fungal pathogens, St; format: cell-based; settings: Zymoseptoria tritici, 48 h
# Summary of the method: as §2
# [5] = Fusarium moniliforme, growth inhibition at 48 hours vs 2% DMSO control
# Sequence of human (hACC2) (O00763 whole entry): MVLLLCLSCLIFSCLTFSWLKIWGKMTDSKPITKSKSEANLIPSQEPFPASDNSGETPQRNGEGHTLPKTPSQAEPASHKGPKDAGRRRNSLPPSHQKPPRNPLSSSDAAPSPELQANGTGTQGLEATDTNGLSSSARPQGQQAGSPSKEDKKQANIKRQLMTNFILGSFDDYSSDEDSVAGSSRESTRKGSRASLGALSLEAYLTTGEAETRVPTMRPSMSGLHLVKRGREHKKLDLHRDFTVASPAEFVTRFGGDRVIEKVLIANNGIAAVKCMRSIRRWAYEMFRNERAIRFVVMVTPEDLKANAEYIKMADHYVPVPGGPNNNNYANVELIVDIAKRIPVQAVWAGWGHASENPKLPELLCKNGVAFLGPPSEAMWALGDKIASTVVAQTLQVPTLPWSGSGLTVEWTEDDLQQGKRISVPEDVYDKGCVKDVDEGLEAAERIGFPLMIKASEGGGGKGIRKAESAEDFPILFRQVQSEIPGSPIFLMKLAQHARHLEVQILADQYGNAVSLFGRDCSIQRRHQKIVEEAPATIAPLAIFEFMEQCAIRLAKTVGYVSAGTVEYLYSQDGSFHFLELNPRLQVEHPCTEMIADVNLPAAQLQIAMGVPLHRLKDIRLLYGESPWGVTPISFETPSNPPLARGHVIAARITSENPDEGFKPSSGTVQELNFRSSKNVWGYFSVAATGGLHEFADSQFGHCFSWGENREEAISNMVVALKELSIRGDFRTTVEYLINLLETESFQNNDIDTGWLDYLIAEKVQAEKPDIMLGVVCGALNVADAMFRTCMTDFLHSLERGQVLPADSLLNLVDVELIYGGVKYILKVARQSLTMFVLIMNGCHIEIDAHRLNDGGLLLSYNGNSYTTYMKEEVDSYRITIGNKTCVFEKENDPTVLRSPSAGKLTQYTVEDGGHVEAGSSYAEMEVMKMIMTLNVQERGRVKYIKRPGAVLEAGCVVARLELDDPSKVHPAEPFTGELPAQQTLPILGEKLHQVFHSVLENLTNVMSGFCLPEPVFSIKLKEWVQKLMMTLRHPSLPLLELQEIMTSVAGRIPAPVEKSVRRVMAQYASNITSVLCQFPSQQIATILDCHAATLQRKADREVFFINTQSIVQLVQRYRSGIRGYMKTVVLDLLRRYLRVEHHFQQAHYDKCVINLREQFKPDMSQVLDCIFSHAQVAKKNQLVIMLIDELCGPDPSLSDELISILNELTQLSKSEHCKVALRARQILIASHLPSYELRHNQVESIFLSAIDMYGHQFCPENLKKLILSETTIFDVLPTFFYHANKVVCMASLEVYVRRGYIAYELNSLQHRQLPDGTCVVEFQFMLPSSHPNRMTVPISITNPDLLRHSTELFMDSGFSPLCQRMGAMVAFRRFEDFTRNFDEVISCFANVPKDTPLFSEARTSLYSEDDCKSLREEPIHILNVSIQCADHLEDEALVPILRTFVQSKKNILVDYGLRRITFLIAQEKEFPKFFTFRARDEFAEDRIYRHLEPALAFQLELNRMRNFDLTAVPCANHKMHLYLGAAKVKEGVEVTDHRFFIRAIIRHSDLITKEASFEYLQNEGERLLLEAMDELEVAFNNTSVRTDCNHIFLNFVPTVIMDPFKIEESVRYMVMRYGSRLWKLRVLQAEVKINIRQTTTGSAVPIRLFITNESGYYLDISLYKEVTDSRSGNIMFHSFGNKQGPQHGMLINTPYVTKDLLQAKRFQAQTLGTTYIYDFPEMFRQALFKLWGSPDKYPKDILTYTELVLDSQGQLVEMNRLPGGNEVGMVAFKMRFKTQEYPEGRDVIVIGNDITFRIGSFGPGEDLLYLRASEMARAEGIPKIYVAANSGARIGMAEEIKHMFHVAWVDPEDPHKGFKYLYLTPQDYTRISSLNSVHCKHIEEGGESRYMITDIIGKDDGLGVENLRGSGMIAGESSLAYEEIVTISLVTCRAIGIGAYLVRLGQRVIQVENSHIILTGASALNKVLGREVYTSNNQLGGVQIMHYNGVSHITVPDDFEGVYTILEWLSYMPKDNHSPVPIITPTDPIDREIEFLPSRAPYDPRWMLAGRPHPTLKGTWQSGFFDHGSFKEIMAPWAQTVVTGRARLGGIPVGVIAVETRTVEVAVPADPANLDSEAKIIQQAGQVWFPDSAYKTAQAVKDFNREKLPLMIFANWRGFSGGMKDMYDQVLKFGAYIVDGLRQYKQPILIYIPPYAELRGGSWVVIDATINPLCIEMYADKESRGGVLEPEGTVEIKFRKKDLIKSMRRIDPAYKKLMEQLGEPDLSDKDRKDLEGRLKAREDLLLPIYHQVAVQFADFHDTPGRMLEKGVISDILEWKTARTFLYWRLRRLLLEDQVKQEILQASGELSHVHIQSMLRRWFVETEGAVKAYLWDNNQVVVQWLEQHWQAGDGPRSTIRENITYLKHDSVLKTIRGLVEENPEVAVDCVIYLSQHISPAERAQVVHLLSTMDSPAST
compound,measurement,setting,value
"COc1ccc(F)cc1[C@H](Cn1c(=O)n([C@H](C)C(=O)NC(C)C)c(=O)c2c(C)c(-n3nccn3)sc21)OCCO [Compound I-89, (R)-2-(1-((R)-2-(5-fluoro-2-methoxyphenyl)-2-(2-hydroxy-ethoxy)ethyl)-5-methyl-2,4-dioxo-6-(2H-1,2,3-triazol-2-yl)-1,4-dihydrothieno[2,3-d]pyrimidin-3(2H)-yl)-N-isopropylpropanamide]",IC50,human (hACC2); Table 2a,10 to 40 nM
same,IC50,"human (hACC2); Table 2b, additional results",5 to 10 nM
same,MIC,"C. albicans; read-out: MIC, C. albicans ATCC 90028, Table 3a, 3 replicates, MIC recorded at 48 h",2.1 to 4 µg/mL
same,MIC,"C. albicans; read-out: MIC, C. albicans ATCC 90028, Table 3b (additional results), 3 replicates, MIC recorded at 48 h",2.01 to 4 µg/mL
same,MIC,"C. krusei; read-out: MIC, C. krusei ATCC 6258, Table 3a, 3 replicates, MIC recorded at 48 h",2.1 to 4 µg/mL
same,MIC,"C. krusei; read-out: MIC, C. krusei ATCC 6258, Table 3b (additional results), 3 replicates, MIC recorded at 48 h",1.01 to 2 µg/mL
same,MIC,"C. parapsilosis; read-out: MIC, C. parapsilosis ATCC 22019, Table 3a, 3 replicates, MIC recorded at 48 h",2.1 to 4 µg/mL
same,MIC,"C. parapsilosis; read-out: MIC, C. parapsilosis ATCC 22019, Table 3b (additional results), 3 replicates, MIC recorded at 48 h",1.01 to 2 µg/mL
same,IC90,"[1]; read-out: Concentration at 90% Inhibition Cg, Collectotrichum graminicola, growth inhibition at 48 hours vs 2% DMSO control",> 50 µg/mL
same,IC90,"[1]; read-out: Concentration at 90% Inhibition Cg, Collectotrichum graminicola, growth inhibition vs 2% DMSO control at 48 hours",> 50 µg/mL
same,IC90,"Diplodia maydis (Dm); read-out: Concentration at 90% Inhibition Dm, Diplodia maydis, growth inhibition at 48 hours vs 2% DMSO control",2 µg/mL
same,IC90,"Diplodia maydis (Dm); read-out: Concentration at 90% Inhibition Dm, Diplodia maydis, growth inhibition vs 2% DMSO control at 48 hours",10 µg/mL
same,Concentration at 90% Inhibition Fm,[2]; [5],AA (compound concentration of 0.08 ppm at 90% inhibition of fungal pathogens)
same,IC90,[2],0.08 µg/mL
same,IC90,"[3]; read-out: Concentration at 90% Inhibition Fv, Fusarium virguliforme, growth inhibition at 48 hours vs 2% DMSO control",2 µg/mL
same,IC90,"[3]; read-out: Concentration at 90% Inhibition Fv, Fusarium virguliforme, growth inhibition vs 2% DMSO control at 48 hours",2 µg/mL
same,IC90,"[4]; read-out: Concentration at 90% Inhibition Pc, Phytophthora capsici, growth inhibition at 48 hours vs 2% DMSO control",> 50 µg/mL
same,IC90,"[4]; read-out: Concentration at 90% Inhibition Pc, Phytophthora capsici, growth inhibition vs 2% DMSO control at 48 hours",> 50 µg/mL
same,IC90,"Rhizoctonia solani (Rs); read-out: Concentration at 90% Inhibition Rs, Rhizoctonia solani, mycelial plugs, growth inhibition at 48 hours vs 2% DMSO control",2 µg/mL
same,IC90,"Rhizoctonia solani (Rs); read-out: Concentration at 90% Inhibition Rs, Rhizoctonia solani, mycelial plugs, growth inhibition vs 2% DMSO control at 48 hours",2 µg/mL
same,IC90,"Septoria tritici (St); read-out: Concentration at 90% Inhibition St, Septoria tritici, growth inhibition at 48 hours vs 2% DMSO control",> 50 µg/mL
same,IC90,"Septoria tritici (St); read-out: Concentration at 90% Inhibition St, Septoria tritici, growth inhibition vs 2% DMSO control at 48 hours",> 50 µg/mL
"COc1ccc(F)cc1[C@H](Cn1c(=O)n(C(C)(C)C(=O)NC(C)C)c(=O)c2c(C)c(-n3nccn3)sc21)OCCC(N)=O [Compound I-90, (R)-2-(1-(2-(3-amino-3-oxopropoxy)-2-(5-fluoro-2-metho-xyphenyl)ethyl)-5-methyl-2,4-dioxo-6-(2H-1,2,3-triazol-2-yl)-1,4-dihydro-thieno[2,3-d]pyrimidin-3(2H)-yl)-N-isopropyl-2-methylpropanamide]",IC50,human (hACC2); Table 2a,10 to 40 nM
same,IC50,"human (hACC2); Table 2b, additional results",10 to 40 nM
same,MIC,"C. albicans; Table 3a, ATCC 90028, 3 replicates, MIC recorded at 48 h, read-out: MIC, C. albicans ATCC 90028",2.1 to 4 µg/mL
same,MIC,"C. albicans; Table 3b (additional results), ATCC 90028, 3 replicates, MIC recorded at 48 h, read-out: MIC, C. albicans ATCC 90028",0.25 to 1 µg/mL
same,MIC,"C. krusei; Table 3a, ATCC 6258, 3 replicates, MIC recorded at 48 h, read-out: MIC, C. krusei ATCC 6258",1.1 to 2 µg/mL
same,MIC,"C. krusei; Table 3b (additional results), ATCC 6258, 3 replicates, MIC recorded at 48 h, read-out: MIC, C. krusei ATCC 6258",0.25 to 1 µg/mL
same,MIC,"C. parapsilosis; Table 3a, ATCC 22019, 3 replicates, MIC recorded at 48 h, read-out: MIC, C. parapsilosis ATCC 22019",2.1 to 4 µg/mL
same,MIC,"C. parapsilosis; Table 3b (additional results), ATCC 22019, 3 replicates, MIC recorded at 48 h, read-out: MIC, C. parapsilosis ATCC 22019",0.25 to 1 µg/mL
same,IC90,"[1]; Collectotrichum graminicola, growth inhibition at 48 hours vs 2% DMSO control, read-out: Concentration at 90% Inhibition Cg",10 µg/mL
same,IC90,"[1]; Collectotrichum graminicola, growth inhibition vs 2% DMSO control at 48 hours, read-out: Concentration at 90% Inhibition Cg",> 50 µg/mL
same,IC90,"Diplodia maydis (Dm); Diplodia maydis, growth inhibition at 48 hours vs 2% DMSO control, read-out: Concentration at 90% Inhibition Dm",> 50 µg/mL
same,IC90,"Diplodia maydis (Dm); Diplodia maydis, growth inhibition vs 2% DMSO control at 48 hours, read-out: Concentration at 90% Inhibition Dm",> 50 µg/mL
same,IC90,[2]; [5],0.4 µg/mL
same,IC90,"[2]; Fusarium moniliforme, growth inhibition vs 2% DMSO control at 48 hours",0.4 µg/mL
same,IC90,"[3]; growth inhibition at 48 hours vs 2% DMSO control, read-out: Concentration at 90% Inhibition Fv",0.4 µg/mL
same,IC90,"[3]; growth inhibition vs 2% DMSO control at 48 hours, read-out: Concentration at 90% Inhibition Fv",0.4 µg/mL
same,IC90,"[4]; growth inhibition at 48 hours vs 2% DMSO control, read-out: Concentration at 90% Inhibition Pc",> 50 µg/mL
same,IC90,"[4]; growth inhibition vs 2% DMSO control at 48 hours, read-out: Concentration at 90% Inhibition Pc",> 50 µg/mL
same,IC90,"Rhizoctonia solani (Rs); mycelial plugs, growth inhibition at 48 hours vs 2% DMSO control, read-out: Concentration at 90% Inhibition Rs",2 µg/mL
same,IC90,"Rhizoctonia solani (Rs); mycelial plugs, growth inhibition vs 2% DMSO control at 48 hours, read-out: Concentration at 90% Inhibition Rs",2 µg/mL
same,IC90,"Septoria tritici (St); Septoria tritici, growth inhibition at 48 hours vs 2% DMSO control, read-out: Concentration at 90% Inhibition St",> 50 µg/mL
same,IC90,"Septoria tritici (St); Septoria tritici, growth inhibition vs 2% DMSO control at 48 hours, read-out: Concentration at 90% Inhibition St",> 50 µg/mL
